How the values were obtained:
hippocampal neurons = assay: Luciferine-luciferase luminescence assay of extracellular ATP release; type: cell-based, mouse; conditions: primary cultures; glutamate 100 µM; NEM 500 µM pre-treatment
Description: Hippocampal neurons were prepared as described previously (Diaz-Hernandez et al., 2008). Briefly, hippocampi were obtained from E17 mouse embryos and, after dissection and washing three times in Ca^2+/Mg^2+-free HBSS, tissue was digested in the same solution with 0.25% trypsin for 15 min at 37°C. Hippocampi were then washed three times in Ca^2+/Mg^2+-free HBSS and dissociated with a firepolished Pasteur pipette. Cells were counted, resuspended in plating medium (MEM, 10% fetal bovine serum, 0.6% glucose) and plated at a density of 5,000 cells/cm^2 on poly-L-lysine coated coverslips (1 mg/ml). After plating, neurons were cultured for 24-72 h in neuronal culture medium (Neurobasal, B-27, glutamax-I). For biochemical experiments, hippocampal neurons were plated on polylysine-coated (1 mg/ml) 60-mm plates at a density of 200,000 cells/cm^2, and cultured for 72 h in neuronal culture medium. AraC was added at a final concentration of 5 µM after 2 days in culture. Extracellular ATP concentration was measured as previously described (Diez-Zaera et al., 2011). Neurons were grown in 6-well plates at a density of 200,000 cells/cm^2. […] In some cases, ATP release was also measured in the presence of A-438079 (1 µM). ATP concentration was determined by comparison with a calibration curve generated with ATP standards diluted in the same buffer as the samples.

Adult male C57BL/6 mice [1] = assay: Histopathology of ipsilateral hippocampal CA3 after SE (FJB and NeuN counts); type: in vivo; conditions: 24 h after SE; drug given prior to SE; vs vehicle
Description: (§1) Adult male C57BL/6 mice (20-25 g) were obtained from Harlan UK (Blackthorn, UK). Mice were first anesthetized using isoflurane (3-5%) and maintained normothermic by means of a feedback-controlled heat blanket (Harvard Apparatus Ltd, Kent, UK). Mice were next placed in a stereotaxic frame and three partial craniectomies performed to affix cortical skull-mounted EEG electrodes (Bilaney Consultants Ltd, Sevenoaks, UK). EEG was recorded using a Grass Comet XL digital EEG (Medivent Ltd, Lucan, Ireland). A guide cannula was affixed (coordinates from Bregma: AP = 0.94; L = 2.85 mm) and the assembly fixed in place with dental cement. Anesthesia was then discontinued and freely moving mice were placed inside a clear perspex recording chamber. EEG recordings were commenced and after establishing baseline EEG for a few minutes, an injection cannula was lowered through the guide cannula for injection of kainic acid (KA) (Ocean Produce International, Nova Scotia, Canada) into the basolateral amygdala nucleus (0.3 µg in 0.2 µl phosphate-buffered saline). Non-seizure control mice underwent the same surgical procedure but received 0.2 µl intra-amygdala vehicle. Mice were killed at different time-points (1, 4, 8 or 24 h) later and perfused with saline to remove intravascular blood components. Brains were either flash-frozen whole in 2-methylbutane at […] or perfused with 4% PFA for histopathology, or dissected on ice to obtain whole hippocampus or microdissected to obtain the different hippocampal subfields (CA1, DG and CA3).
Flash-frozen brains in 2-methylbutane were sectioned at -20°C on a Leica cryostat and 12 µm sections collected at the level of dorsal hippocampus (-1.8 mm and - 2.9 mm from Bregma according to a mouse stereotaxic atlas (Paxinos and Franklin, 2001). Neuronal death was assessed using Fluoro-Jade B (FJB) staining, as previously described (Engel et al., 2010; Murphy et al., 2010). Briefly, sections were air-dried and post-fixed in formalin followed by hydrating through graded alcohols. Sections were then rinsed in distilled water and transferred to 0.006% potassium permanganate solution for 15 min. Sections were rinsed again and transferred to a 0.001% FJB solution according to manufacturer's recommendations (Chemicon Europe Ltd, Chandlers Ford, UK). After staining, sections were mounted in DPX (Sigma-Aldrich). For NeuN immunohistochemistry, sections were fixed and permeabilized, blocked in goat serum and incubated overnight with anti-NeuN antibodies (Millipore Ireland B.V., Tullagreen, Ireland) followed by incubation with goat anti-rabbit IgG antibodies coupled to AlexaFluor 568 (BioSciences Limited, Dun Laoghaire, Ireland). Sections were examined using a Nikon 2000s epifluorescence microscope under Ex/Em wavelengths of 472/520 nm (green) and 540 to 580/600 to 660 nm (red) and images captured using a Hamamatsu Orca 285 camera. Cell counts were the average of two adjacent sections for the CA3 subfield under 40x lens magnification by an observer blinded to treatment.

Adult male C57BL/6 mice [2] = assay: Intra-amygdala KA-induced SE in mice, EEG, drug i.c.v. immediately prior to KA; type: in vivo; conditions: i.c.v. co-injection immediately prior to intra-amygdala KA; vs vehicle (antibody vs control IgG); lorazepam at 40 min
Description: as §1
Digitized EEG recordings were analyzed off-line using manual assessment and automated software. […] The duration of high-frequency (>5 Hz) high-amplitude (>2× baseline) polyspike discharges of ≥5 s duration (HAHFDs) was counted by a reviewer blind to treatment. Further EEG analysis was performed by uploading EEG into Labchart7 software (ADInstruments) to calculate the power spectral density (total power, a measure of the input signal's power (amplitude) over frequency) EEG spectrogram (spectral power against frequency and time).
All the following drugs were purchased from Sigma-Aldrich Ireland (Arklow, Ireland) and delivered by intracerebroventricular (i.c.v.) microinjection in 2 µl volume unless otherwise specified: Adenosine 5'-triphosphate (ATP) at 100 µM, Uridine-5'-triphosphate (UTP) at 100 µM, Uridine-5'-diphosphate (UDP) at 100 µM, 2-chloro-N6-cyclopentyladenosine (CCPA) 300 nM, Pyridoxal-phosphate-6-azophenyl-2,4-disulfonate (PPADS) at 50 µM, α,β- methylene- adenosine-5-triphosphate (α,β-meATP) at 0.1 nmol, 3-O-(4-benzoyl)benzyl-ATP (Bz-ATP) at 300 µM, Brillant Blue G (BBG) at 30 nM.
Lorazepam (Ativan®, Wyeth, Taplow, U.K.) (6 mg/kg) was administered intraperitoneally (i.p.) at 40 or 60 min after KA.
Next, a model of focal-onset SE was used to evaluate the contributions of ATP-gated receptors in vivo. Mice received intra-amygdala microinjection of KA to induce SE (Fig. 2C). […] The electroencephalogram (EEG) was recorded by using cranial electrodes (lower part of Fig. 2C). Seizures were curtailed after 40 min by the injection of lorazepam to minimize morbidity and mortality.

rat models = conditions: mifepristone before or after the onset of SE; cited from earlier work
[3] = in vivo; cited from earlier work
Adult male C57BL/6 mice [4] = assay: Refractory SE model in mice, drugs given 60 min post-KA, EEG during the next hour; type: in vivo
Description: as §1
Digitized EEG recordings were analyzed off-line using manual assessment and automated software. The occurrence of high amplitude high frequency spiking during seizures is synonymous with injury-causing electrographic seizures during SE (also termed type IV electrographic seizures) (Lowenstein et al., 1991; Henshall et al., 2000). The duration of high-frequency (>5 Hz) high-amplitude (>2× baseline) polyspike discharges of ≥5 s duration (HAHFDs) was counted by a reviewer blind to treatment. Further EEG analysis was performed by uploading EEG into Labchart7 software (ADInstruments) to calculate the power spectral density (total power, a measure of the input signal's power (amplitude) over frequency) EEG spectrogram (spectral power against frequency and time).
A-438079 (3-[[5-(2,3-Dichlorophenyl)-1H-tetrazol-1-yl]methyl]pyridine hydrochloride) (50 µM) was from Tocris Biosciences (Bristol, U.K.) and the P2X7R specific antibody was from Alomone Labs (APR-008, Alomone Labs, Ltd, Jerusalem, Israel) and injected at 0.7 mg/ml. Lorazepam (Ativan®, Wyeth, Taplow, U.K.) (6 mg/kg) was administered intraperitoneally (i.p.) at 40 or 60 min after KA.
To model refractory SE, seizures were allowed to continue beyond the normal time when lorazepam is given (40 min) and instead the effects of drugs were recorded 60 min post-KA on the EEG during the next hour.

neonatal seizures = conditions: in vivo; cited from earlier work

Q: Which “ATP release from hippocampal neurons” value (hippocampal neurons) does the source give for `N[C@@H](CCC(=O)O)C(=O)O` [glutamate] here?
A: induced the rapid release of ATP

Q: With `Cc1nc(N=Nc2ccc(S(=O)(=O)O)cc2S(=O)(=O)O)c(COP(=O)(O)O)c(C=O)c1O` [PPADS, Pyridoxal-phosphate-6-azophenyl-2,4-disulfonate] as the compound, how does the “Counts of surviving CA3 neurons (NeuN)” value (Adult male C57BL/6 mice [1]) read?
A: not protective

Q: And the “FJB-positive cells within the CA3 subfield (neuronal death)” value (Adult male C57BL/6 mice [1])?
A: did not afford protection

Q: And the “seizure time during SE (duration of HAHFDs)” value (“seizure time during SE” below) (Adult male C57BL/6 mice [2])?
A: only a weak, non-significant effect

Q: With `CC#C[C@]1(O)CC[C@H]2[C@@H]3CCC4=CC(=O)CCC4=C3[C@@H](c3ccc(N(C)C)cc3)C[C@@]21C` [mifepristone] as the compound, how does the efficiency of diazepam (rat models) read?
A: increases efficiency of diazepam

Q: For `OC[C@H]1O[C@@H](n2cnc3c(NC4CCCC4)nc(Cl)nc32)[C@H](O)[C@@H]1O` [CCPA, 2-chloro-N6-cyclopentyladenosine], which “seizure time during SE” value (Adult male C57BL/6 mice [2]) is on record?
A: significantly reduced

Q: Which “seizure time during SE” value (Adult male C57BL/6 mice [2]) does the source give for `Nc1ncnc2c1ncn2C1OC(COP(=O)(O)CP(=O)(O)OP(=O)(O)O)C(O)C1O` (stereo not drawn) [α/β-methylATP, α,β-methylene-adenosine-5-triphosphate] here?
A: no differences in seizure time

Q: Which “seizure time during SE” value (Adult male C57BL/6 mice [2]) does the source give for `O=c1ccn([C@@H]2O[C@H](COP(=O)(O)OP(=O)(O)OP(=O)(O)O)[C@@H](O)[C@H]2O)c(=O)[nH]1` [UTP, Uridine-5'-triphosphate] here?
A: no differences in seizure time

Q: With `Nc1ncnc2c1ncn2[C@@H]1O[C@H](COP(=O)(O)OP(=O)(O)OP(=O)(O)O)[C@@H](OC(=O)c2ccc(C(=O)c3ccccc3)cc2)[C@H]1O` [BzATP, 3-O-(4-benzoyl)benzyl-ATP] as the compound, how does the “seizure time during SE” value (Adult male C57BL/6 mice [2]) read?
A: significant increase of seizure time

Q: Which “ATP release from hippocampal neurons” value (hippocampal neurons) does the source give for `CCN1C(=O)C=CC1=O` [NEM, N-Ethylmaleimide] here?
A: ATP release was blocked

Q: Which duration of action [3] does the source give for `O=C1Nc2ccc(Cl)cc2C(c2ccccc2Cl)=NC1O` (stereo not drawn) [lorazepam, Lorazepam] here?
A: 2 to 8 h

Q: And the “total seizure time (duration of HAHFDs)” value (Adult male C57BL/6 mice [4]; given 60 min after KA, 60 min recording, vs vehicle)?
A: failed to significantly reduce

Q: What about the “total seizure power (total EEG power)” value (Adult male C57BL/6 mice [4]; given 60 min after KA, vs vehicle) of the same compound?
A: significant reduction

Q: What about the “mice continued in SE” value (Adult male C57BL/6 mice [4]; given alone 60 min after KA, number of mice / group) of the same compound?
A: 4/7

Q: And the reduction in power (Adult male C57BL/6 mice [4]; total power analysis, Fig. 9C, given 60 min after KA, compared to Veh)?
A: ~50%

Q: With `O=c1ccn([C@@H]2O[C@H](COP(=O)(O)OP(=O)(O)O)[C@@H](O)[C@H]2O)c(=O)[nH]1` [UDP, Uridine-5'-diphosphate] as the compound, how does the “seizure time during SE” value (Adult male C57BL/6 mice [2]) read?
A: no differences in seizure time

Q: For `CCC1(c2ccccc2)C(=O)NC(=O)NC1=O` [phenobarbitone], which “cases in which neonatal seizures are not stopped” value (neonatal seizures) is on record?
A: over 50%

Q: With `Nc1ncnc2c1ncn2[C@@H]1O[C@H](COP(=O)(O)OP(=O)(O)OP(=O)(O)O)[C@@H](O)[C@H]1O` [ATP, Adenosine 5'-triphosphate] as the compound, how does the “seizure time during SE” value (Adult male C57BL/6 mice [2]) read?
A: significantly increased

— EP2604265A1, “P2x7 antagonists as frontline or adjunctive treatment against status epilepticus” (Royal College of Surgeons in Ireland (RCSI), priority 2011, dated 2013)
